Earlier results as cited in patent US4127539A, “Novel hexacosapeptides, intermediates therefore and pharmaceutical compositions and methods employing said hexacosapeptides” (priority 1977, dated 1978).

Tests used:
[1] = literature, background section
rat = settings: injected directly into the brain of the rat
[2] = test system: partially purified brain opiate receptor sites; settings: literature, background section

H-Tyr-Gly-Gly-Phe-Met-OH [methionine enkephalin]
activity in bioassays for opiate activity [1]: very active
analgesic effect (rat): only weak analgesic agent of short duration
binding to partially purified brain opiate receptor sites [2]: binds stereo-specifically
